Experiments:
[1] = system: mouse acute inflammation model induced by intraperitoneally transplanting Propionibacterium acnes; assay: Anti-inflammatory property evaluation assay: neutrophil count in peritoneal exudate of the P. acnes-induced mouse acute inflammation model; format: in vivo, mouse (male BALB/c); settings: for anti-inflammatory activity as compared with the RvE2 and o-BZ-RvE2 groups / number of neutrophils in peritoneal exudate as compared with P. acnes-inoculated control mice: 300 pg intraperitoneally 8 hours after P. acnes injection, FIG. 3; for number of neutrophils in peritoneal exudate as compared with P. acnes-inoculated control mice: n=3 or 4
Method: The strength of the anti-inflammatory action of each compound was evaluated by using a mouse acute inflammation model induced by intraperitoneally transplanting Propionibacterium acnes.
The mouse acute inflammation model was produced using male BALB/c mice (6 to 7 weeks, obtained from Japan SLC Inc.). First, Propionibacterium acnes (P. acnes; 500 μg per mouse) subjected to heat sterilization was intraperitoneally injected into a mouse to prepare an acute inflammation model mouse. Eight or twelve hours after the injection of Propionibacterium acnes, the test compound was intraperitoneally administered to an acute inflammation model mouse. Then, 24 hours after the injection of Propionibacterium acnes, a peritoneal exudate was collected and the number of neutrophils was counted.
Then, 24 hours after the injection of Propionibacterium acnes, a peritoneal exudate was collected and the number of neutrophils was counted.
12 hours after the injection of Propionibacterium acnes, 300 fg, 300 pg, or 300 ng of RvE2 or o-BZ-RvE2, or only a solvent was independently intraperitoneally administered to acute inflammation model mice (n=3 or 4). Then, 24 hours after the injection of Propionibacterium acnes, a peritoneal exudate was collected and the number of neutrophils was counted.
300 pg of RvE2, o-BZ-RvE2, 17-deoxy-o-BZ-RvE2, 5-deoxy-o-BZ-RvE2, or 5,17-dideoxy-o-BZ-RvE2, or only a solvent was intraperitoneally administered to acute inflammation model mice 8 hours after the injection of Propionibacterium acnes (n=3 or 4). Then, 24 hours after the injection of Propionibacterium acnes, a peritoneal exudate was collected and the number of neutrophils was counted.

[2] = Evaluation of metabolic stability with human liver microsomes (HPLC remaining rate); format: in vitro ADME; settings: 37° C.; for temporal change in the remaining rate in the presence of human liver microsomes: 0.1 M PBS (pH 7.4), HPLC, n=3, FIG. 4; for metabolic stability / degradation by human liver microsomes (in words): Example 1, 0-6 hours, FIG. 2
Method: 60 μL was aliquoted from an ethanol solution (1 mg/1 mL) of the synthetic compound to be evaluated, and the solvent was removed. A 0.1 M PBS buffer (435 μL, pH 7.4), CH3CN (10 μL), an NADPH regeneration system A solution (25 μL), and an NADPH regeneration system B solution (5 μL) were added to each compound, and stirring was carried out with a vortex mixer. After incubating the obtained reaction solution at 37° C. for 5 minutes, human liver microsomes (Corning (registered trade name) UltraPool (registered trade name) HLM 150) (25 μL) were added thereto, and 80 μL of the solution was aliquoted every hour (after 0, 1, 2, 3, and 6 hours from the addition). Each of the aliquoted solutions was quenched by adding CH3CN (80 μL) and then centrifuged (10,000 rpm) for 3 minutes at room temperature. The supernatant was collected and analyzed by using HPLC (COSMOSIL 5C18-MS-II, 4.6 mm×250 mm, CH3CN/H2O/TFA=35/65/0.01, 1.0 mL/min, detection at 254 nm).
The metabolic stability of 17-deoxy-o-BZ-RvE2 and 5-deoxy-o-BZ-RvE2 with respect to human liver microsomes was investigated. Specifically, for RvE2, o-BZ-RvE2, 17-deoxy-o-BZ-RvE2, and 5-deoxy-o-BZ-RvE2, the temporal change in the remaining rate (%) was measured by HPLC in 0.1 M PBS (pH 7.4) in the presence of human liver microsomes at 37° C. (n=3).

[3] = background statement; cited from earlier work
[4] = background statement; cited from earlier work; remark: listed apart in the source
[5] = exudate collected 24 hours after injection

Row | Compound | anti-inflammatory activity as compared with the RvE2 and o-BZ-RvE2 groups ([1]; exudate at 24 hours) | number of neutrophils in peritoneal exudate as compared with P. acnes-inoculated control mice [1, 5] | temporal change in the remaining rate in the presence of human liver microsomes [2] | stability with respect to oxygen as compared with RvE2 [3] | metabolic stability [4] | metabolic stability / degradation by human liver microsomes (in words) [2] | infiltration of neutrophils into the abdominal cavity (number of neutrophils in peritoneal exudate) as compared with solvent alone ([1]; 300 pg intraperitoneally 12 hours after P. acnes injection, exudate collected 24 hours after injection, n=4, FIG. 1(a)) | anti-inflammatory action as compared with RvE2 ([1]; 300 fg, 300 pg or 300 ng intraperitoneally 12 hours after P. acnes injection, exudate at 24 hours, FIGS. 1(a) and 1(b))
1 | CCC/C=C/c1ccccc1C/C=C/CCCCC(=O)O [5,17-dideoxy-o-BZ-RvE2] | attenuated | significantly decreased |  |  |  |  |  | 
2 | CC[C@@H](O)/C=C/c1ccccc1C/C=C/CCCCC(=O)O [5-deoxy-o-BZ-RvE2] | attenuated | significantly decreased | gradually decreased as compared with RvE2 |  |  |  |  | 
3 | CCC(O)C=CC=CCC1CC1CC=CC=CC(O)CCCC(=O)O (centres unmarked) [CP-RvE2] |  |  |  | improved stability with respect to oxygen | insufficient metabolic stability |  |  | 
4 | CC[C@@H](O)/C=C/C=C\C/C=C\C/C=C\C=C\[C@@H](O)CCCC(=O)O [RvE2, (5S,6E,8Z,11Z,14Z,16E,18R)-5,18-dihydroxyicosa-6,8,11,14,16-pentaenoic acid, reference compound] |  | significantly decreased | decreased with the passage of time |  |  | easily degraded |  | 
5 | CC[C@@H](O)/C=C/c1ccccc1C/C=C/[C@@H](O)CCCC(=O)O [o-BZ-RvE2] |  | significantly decreased |  |  |  | excellent in metabolic stability | significantly suppressed | excellent anti-inflammatory action as compared with RvE2
